For 18 molecules, TGI and GI50 results are on record in PubChem BioAssay (NCI).

Structures are written as SMILES. Where “and” joins values, the source holds several entries; their conditions need not be identical. Identical values can stand only once.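 1) Cells in 96-well plates. 2) Compound, 48 h, 5 concentrations. 3) Linear interpolation between surrounding doses. 4) Unreached endpoint = highest concentration. GI50 is the concentration that inhibits growth by half. The concentration for full growth arrest is given as TGI.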 A value given as a limit tells only on which side of the number the result lay.

Holding throughout (experiment): DTP human tumour cell line panel, 48 h
In test [1] the test system is CCRF-CEM leukemia.
Test [2] concerns U251 CNS.
The test system of test [3] is CAKI-1 renal.
Test [4] has as its system SF-539 CNS.
In test [5] the test system is MOLT-4 leukemia.
The subject of test [6] is NCI-H460 lung.
In test [7] the test system is NCI-H23 lung.
Test [8] deals with OVCAR-4 ovarian.
Test [9] has as its system SK-MEL-5 melanoma.
Test [10] relates to LOX IMVI melanoma.

On to `CCC(C)(O)c1cn(-c2ccc(S(=O)(=O)O)cc2)nn1` (stereo unspecified), for which the TGI in test [1], in [2], in test [3], in test [4], in test [5] and in [6] was greater than 100 µM each time. The TGI in test [7], in test [8], in test [9] and in test [10] was greater than 100 µM throughout.

As to `NC(CSC(c1ccccc1)(c1ccccc1)c1ccc(F)cc1)C(=O)O` (stereo unspecified), the GI50 in test [1] was 0.289 µM; in test [2] it was 0.374 µM; in test [3], 0.79 µM; in test [4], 0.285 µM; in test [5], 1.37 µM; in test [6], 0.336 µM. For the same molecule, the GI50 was 0.657 µM in test [7], 9.62 µM in test [8], 0.382 µM in test [9] and 0.891 µM in [10]. Besides, the TGI was greater than 100 µM in test [1]; greater than 60.5 µM in test [2]; greater than 26.8 µM in test [3]; 0.921 µM in test [4]; greater than 46.9 µM in test [5]; 14.9 µM in test [6]. Further, the TGI is greater than 28.3 µM in test [7], greater than 100 µM in test [8], greater than 70.9 µM in [9] and greater than 100 µM in test [10].

`CCN(CC)c1ccc(N=Nc2ccc(-c3nc4cccn(C)c-4n3)cc2)cc1`: the TGI is 19.8 µM in [1]; 16.3 µM in test [2]; 41.5 µM in test [3]; 25.8 µM in test [4]; 9.32 µM in test [5]; 17.3 µM in test [6]. Also, the TGI was 34.7 µM in test [7], 31.2 µM in [8], 16.8 µM in [9] and 6.42 µM in test [10].

As to `CCc1nn2ncccc2c1-c1ccnc(NC2CC2)n1`, the GI50 in test [1] was greater than 25 µM; in test [2], greater than 25 µM; in [3], greater than 22.1 µM; in test [4], greater than 25 µM; in [5] it was greater than 25 µM; in [6] it was greater than 25 µM. For the same molecule, the GI50 in test [7], in test [8], in test [9] and in test [10] was greater than 25 µM in each case. Also, the TGI in [1], in test [2], in test [3], in test [4], in test [5] and in test [6] was greater than 25 µM each time. The TGI in [7], in test [8], in test [9] and in test [10] was greater than 25 µM each time.

On to `COc1cc(Nc2ncnc(Nc3ccc4c(n3)NC(=O)C(C)(C)O4)n2)cc(OC)c1OC`, for which the GI50 in test [1] is 3.73 µM; in test [2] it was 1.5 µM; in [3], 0.319 µM; in [4], 0.23 µM; in test [5], 5.24 µM; in test [6], 3.2 µM. Moreover, the figures for the GI50 in [7], in [9] and in [10] were 2.59 µM, greater than 100 µM and 0.633 µM, respectively. Further, the TGI was greater than 100 µM in test [1]; greater than 100 µM in test [2]; greater than 100 µM in [3]; 0.673 µM in [4]; greater than 100 µM in test [5]; greater than 100 µM in test [6]. In addition, the TGI in [7], in [8], in test [9] and in [10] was greater than 100 µM throughout.

With `Cc1cccc(Nc2cc(Cl)nc(SCC(=O)O)n2)c1C`, the TGI in test [1], in [2], in [3], in [4], in test [5] and in test [6] was greater than 100 µM in each case. For the same molecule, the TGI in test [7], in test [8], in [9] and in test [10] was greater than 100 µM each time.

Turning to `O=C(NC(=O)c1cn(CCN2CCN(C(=O)NCCCCCCNC(=O)N3CCN(CCn4cc(C(=O)NC(=O)OCc5ccccc5)c(=O)[nH]c4=O)CC3)CC2)c(=O)[nH]c1=O)OCc1ccccc1`, the TGI in test [1], in test [2], in test [3], in [4], in test [5] and in test [6] was greater than 100 µM in each case. Besides, the concentration for total growth inhibition (TGI) in test [7], in test [8], in [9] and in [10] was greater than 100 µM in each case.

For `COc1cccc(NC(=O)c2sc3nc4c(cc3c2N)C(O)CCC4)c1` (stereo unspecified), the GI50 in test [1] is 0.22 µM; in [2] it was 0.244 µM; in test [3] it was 0.538 µM; in test [4], 0.14 µM; in test [5] it was 0.294 µM; in test [6] it was 0.324 µM. Besides, the GI50 in [7] was 0.442 µM; in test [8], 0.775 µM; in test [9], 0.311 µM; in test [10] it was 0.766 µM. For the same molecule, the TGI in test [1] is greater than 100 µM; in test [2], greater than 51.6 µM; in test [3], greater than 100 µM; in test [4], 0.606 µM; in test [5] it was greater than 100 µM; in test [6], greater than 100 µM. Besides, the TGI was greater than 100 µM in test [7], greater than 100 µM in [8], 8.29 µM in test [9] and greater than 100 µM in test [10].

Regarding `Cc1ccccc1N=Nc1c(-c2ccccc2)nn(C(=O)CC(=O)Nc2cccc(Cl)c2)c1-c1ccccc1`, the TGI is 25.4 µM in [1]; 19.6 µM in test [2]; greater than 100 µM in [3]; greater than 31.6 µM in test [4]; 22.7 µM in [5]; greater than 31.6 µM in [6]. Besides, the TGI in [7] was greater than 31.6 µM; in test [8], greater than 31.6 µM; in test [9], 24.9 µM; in test [10] it was 25.3 µM.

Turning to `CCCCCCCCCCOC(=O)c1cc[n+](C)cc1`, the TGI in [1] was 37.7 µM; in test [2] it was 29.1 µM; in [3], 30.4 µM; in test [4], 29.8 µM; in [5] it was 37.5 µM; in test [6] it was 38.8 µM. The total growth inhibition concentration (TGI) is 35 µM in [7], 33 µM in test [8], 33.6 µM in [9] and 32.6 µM in test [10].

In the case of `Nc1ccccc1C(=O)NC(=O)Nc1ccc(Oc2ncc(Br)cn2)c(Cl)c1`, the GI50 was 0.0249 µM and < 0.0246 µM in test [1]; 0.0511 µM in test [5]; 0.00688 µM in [9]. The TGI was found to be 1.9 µM in [1]; 12.4 µM in test [2]; 1.72 µM in test [3]; 0.0204 µM in [4]; 33.9 µM in test [5]; 3.53 µM in [6]. The TGI in test [7] came out at 4.86 µM; in test [8], 10.2 µM; in test [9], 1.71 µM; in [10], 24.1 µM.

Take `COc1ccc2c(c1)CCc1c(CO)c(COC(=O)NC(C)C)n(C)c1-2`: the TGI in [1] is 12.5 µM; in [2], 35.8 µM; in [3], 77.8 µM; in test [4] it was greater than 87 µM; in test [5] it was 8.57 µM; in test [6], 26.5 µM. The total growth inhibition concentration (TGI) in [7] amounted to 22.1 µM; in [8], 53.5 µM; in [9], 15.1 µM; in test [10], 25.4 µM.

Turning to `CC/C(Cc1ccccc1)=C(/c1ccc(O)cc1)c1ccc(OCCN2CCCC2)cc1`, the GI50 is 1.83 µM in test [1]; 1.69 µM in [2]; 1.65 µM in test [3]; 1.67 µM in test [4]; 1.57 µM in [5]; 1.72 µM in test [6]. For the same molecule, the GI50 in [7] was 1.72 µM; in test [8], 2.08 µM; in [9], 1.7 µM; in [10], 1.62 µM. Further, the TGI was 4.16 µM in test [1]; 3.19 µM in [2]; 3.52 µM in test [3]; 3.21 µM in test [4]; 3.63 µM in [5]; 3.48 µM in [6]. Moreover, the TGI in test [7] was 3.53 µM; in test [8] it was 5.18 µM; in [9], 3.08 µM; in test [10], 3.05 µM.

Take `O=C(Nc1ccc2c(c1)OCCO2)C(=O)c1c[nH]c2ccccc12`: the GI50 in test [1] is 1.08 µM; in [2] it was 1.63 µM; in test [3], 1.68 µM; in test [4] it was 1.5 µM; in test [5], 0.618 µM; in test [6], 1.3 µM. Moreover, the GI50 in [7] is 1.44 µM; in [8] it was 3.88 µM; in [9] it was 1.47 µM; in test [10] it was 1.3 µM. Also, the total growth inhibition concentration (TGI) was greater than 100 µM in [1]; 15.9 µM in test [2]; greater than 100 µM in test [3]; 5.32 µM in test [4]; greater than 100 µM in test [5]; greater than 100 µM in [6]. The TGI is 26.7 µM in test [7], greater than 100 µM in test [8], greater than 100 µM in test [9] and greater than 100 µM in test [10].

As for `Nc1ccc(-c2ccc3ncc4ccc(=O)n(-c5cccc(C(F)(F)F)c5)c4c3c2)cn1`, the GI50 in [1] was less than 0.01 µM; in [2], less than 0.01 µM; in [3], less than 0.01 µM; in test [4] it was less than 0.01 µM; in test [5], less than 0.012 µM; in [6] it was less than 0.01 µM. Besides, the GI50 was less than 0.013 µM in test [7], less than 0.01 µM in test [8], less than 0.01 µM in test [9] and less than 0.01 µM in [10]. Also, the TGI in test [1] turned out to be 1.93 µM; in [2], 0.948 µM; in [3] it was 1.55 µM; in test [4], 0.039 µM; in [5] it was 0.402 µM; in test [6] it was 3.18 µM. Moreover, the TGI in test [7] was 2.35 µM; in test [8] it was 0.0337 µM; in [9], 0.0767 µM; in test [10], 0.481 µM.

For `COc1cc(C2c3cc4c(cc3[C@@H](N(C)c3ccc(N(C)C)cc3)C3COC(=O)C23)OCO4)cc(OC)c1O` (stereo partly specified), the TGI in test [1] worked out at 35.5 µM; in test [2], 1.45 µM; in [3], 25 µM; in test [4], 0.638 µM; in test [5], 25.8 µM; in [6], 24.2 µM. Further, the concentration for total growth inhibition (TGI) in [7] was determined as 4.92 µM; in [8], 29.4 µM; in test [9], 13.7 µM; in test [10], 16 µM.

For the molecule `C=C(CN1c2ccccc2Sc2ccccc21)c1ccc(C(=O)Nc2ccccc2N)cc1`, the GI50 in test [1] is 0.101 µM; in test [2], greater than 50.3 µM; in [3], 8.83 µM; in test [4], greater than 26 µM; in test [5], 0.276 µM; in test [6] it was 17.7 µM. Moreover, the GI50 was greater than 100 µM in test [7], 12 µM in test [8], 44.7 µM in test [9] and greater than 52.7 µM in [10]. For the same molecule, the TGI in [2] is greater than 100 µM; in test [3], greater than 50.2 µM; in test [4], greater than 100 µM; in [5] it was greater than 65.2 µM; in test [6] it was greater than 100 µM; in test [7], greater than 100 µM. For the same molecule, the TGI in test [8] was 97.3 µM; in test [9], greater than 100 µM; in test [10] it was greater than 100 µM.

`O/N=C\C(=Nc1ccc(Cc2ccc(N=C(/C=N\O)NO)cc2)cc1)NO`: the TGI was greater than 100 µM in [1]; greater than 100 µM in test [2]; 69.2 µM in [3]; greater than 100 µM in [4]; greater than 100 µM in [5]; greater than 100 µM in [6]. The TGI in test [7], in [8], in test [9] and in test [10] was greater than 100 µM each time.
